Laboratory results from US11512053B2, “Arginine methyltransferase inhibitors and uses thereof” (priority 2013, dated 2022).
Like-named read-outs stand apart in the source and are kept apart here.

Biological target: full-length human PRMT8 isoform 1 (Homo sapiens, UniProt Q9NR22)
Assay: PRMT8 Biochemical Assay (3H-SAM Flashplate, peptide substrate)
Conditions: read-out: Biochemical IC50 PRMT8
Procedure, shortened: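 Scintillation Flashplate capture of biotinylated histone H4 (31-45) peptide (150 nM) methylated by 1.5 nM PRMT8 using 3H-SAM (50 nM) with unlabelled SAM (550 nM); enzyme and compound preincubated 30 min, room temperature, in Bicine pH 7.6 buffer with TCEP, BSG, Tween 20 and 2% DMSO. Stopped with excess cold SAM (400 uM); IC50 from % inhibition, min control 1 mM SAH.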

[1] = single experiment or average of multiple experiments

full-length human PRMT8 isoform 1, sequence (Q9NR22 whole entry, canonical isoform): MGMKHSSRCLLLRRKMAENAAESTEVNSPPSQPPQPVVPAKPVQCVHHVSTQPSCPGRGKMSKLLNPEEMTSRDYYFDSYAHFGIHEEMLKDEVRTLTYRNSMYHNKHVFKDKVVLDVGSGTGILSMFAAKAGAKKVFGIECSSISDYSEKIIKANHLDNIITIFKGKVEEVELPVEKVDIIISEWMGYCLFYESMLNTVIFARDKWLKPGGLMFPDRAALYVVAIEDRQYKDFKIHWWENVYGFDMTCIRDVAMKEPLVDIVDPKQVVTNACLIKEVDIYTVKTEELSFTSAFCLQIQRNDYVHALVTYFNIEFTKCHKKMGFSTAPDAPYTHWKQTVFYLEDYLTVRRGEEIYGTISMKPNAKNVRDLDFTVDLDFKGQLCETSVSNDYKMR

| IC50 [1] [nM] | IC50 [nM] | SMILES |
| --- | --- | --- |
| 5.3 |  | CN(CCN)Cc1c[nH]nc1C1CCC2(CCCC2)CC1 [Compound 45] |
| 6.2 |  | CNCCN(C)Cc1c[nH]nc1C1CCC2(CCCCC2)CC1 [Compound 46] |
| 12.5 |  | CNCCN(C)Cc1cn(C)nc1C1CCC2(CCCC2)CC1 [Compound 47] |
| 8.3 |  | CNCCN(C)Cc1c[nH]nc1C1CCC2(CCCC2)CC1 [Compound 48] |
| 7.3 |  | CNCCN(C)Cc1cnn(C)c1C1CCC2(CCCC2)CC1 [Compound 49] |
| 11.2 |  | CNCCN(C)Cc1c[nH]nc1C1CCC(C(C)C)CC1 (stereo not shown) [Compound 50] |
| 21.4 |  | CNCCN(C)Cc1c[nH]nc1C1CCC2(CCCO2)CC1 (stereo not shown) [Compound 51] |
| 10.4 |  | CNCCN(C)Cc1c[nH]nc1C1CCC(C)(C)CC1 [Compound 52] |
| 12.8 |  | CNCCN(C)Cc1c[nH]nc1C1CCC(COC)CC1 (stereo not shown) [Compound 53] |
| 24.7 |  | CNCCN(C)Cc1c[nH]nc1C1CCC2(CCOC2)CC1 (stereo not shown) [Compound 54] |
| 24.7 |  | CNCCN(C)Cc1c[nH]nc1C1CCC(CCOC)CC1 (stereo not shown) [Compound 55] |
| 32 |  | CNCCN(C)Cc1c[nH]nc1C1CCC(OC(C)C)CC1 (stereo not shown) [Compound 56] |
| 30.1 |  | CNCCN(C)Cc1c[nH]nc1C1CCC(COC)(COC)CC1 [Compound 57] |
| 72.1 |  | CNCCN(C)Cc1c[nH]nc1C1CCC(OCCOC)CC1 (stereo not shown) [Compound 58] |
| 48.4 |  | CNCCN(C)Cc1c[nH]nc1C1CC(C)(C)OC(C)(C)C1 [Compound 59] |
| 129 |  | CNCCN(C)Cc1c[nH]nc1C1CCC(COCCOC)(COCCOC)CC1 [Compound 60] |
| 20 | < 100 | CNCCN(C)Cc1c[nH]nc1C1CCC2(CCCCC2)OC1 (stereo not shown) [Compound 62] |
| 12 | < 100 | CNCCN(C)Cc1c[nH]nc1C1CCC2(CC1)CC(C)OC(C)C2 (stereo not shown) [Compound 63] |
| 13.6 | < 100 | CNCCN(C)Cc1c[nH]nc1C1CCC2(CCC(C)(C)CC2)OC1 (stereo not shown) [Compound 65] |
| 11.9 | < 100 | CNCCN(C)Cc1c[nH]nc1C1CCC(Oc2ccccc2)CC1 (stereo not shown) [Compound 67] |
| 24.2 | < 100 | CCC(CC)OC1CCC(c2n[nH]cc2CN(C)CCNC)CC1 (stereo not shown) [Compound 70] |
| 3970 | 3010 to 10000 | CNCCN(C)Cc1c[nH]nc1C1CC(COC)C(C)(C)C(COC)C1 (stereo not shown) [Compound 86] |
| 1010 | 1010 to 3000 | CCOCC1CC(c2n[nH]cc2CN(C)CCNC)CC(COCC)C1(C)C (stereo not shown) [Compound 87] |

The remaining lines, values behind:

| SMILES | IC50 [1] [nM] | IC50 [nM] |
| --- | --- | --- |
| CNCCN(C)Cc1c[nH]nc1C#Cc1cccc(OC)c1 [Compound 1] | 390 |  |
| CNCCN(C)Cc1c[nH]nc1C#Cc1ccc(C(C)(C)C)cc1 [Compound 2] | 170 |  |
| CNCCN(C)Cc1c[nH]nc1C#Cc1ccc(F)cc1 [Compound 4] | 590 |  |
| CNCCN(C)Cc1c[nH]nc1/C=C/c1ccc(-c2ccccc2)cc1 [Compound 5] | 420 |  |
| CNCCN(C)Cc1c[nH]nc1/C=C/c1ccc(C(F)(F)F)cc1 [Compound 6] | 240 |  |
| CNCCN(C)Cc1c[nH]nc1/C=C/c1ccc(OC)cc1 [Compound 7] | 520 |  |
| Cc1ccc(/C=C/c2n[nH]cc2CN(C)CCN)cc1 [Compound 8] | 360 |  |
| CN(CCN)Cc1c[nH]nc1C1=CCOCC1 [Compound 10] | 1920 |  |
| COc1cc(/C=C/c2n[nH]cc2CN(C)CCN)cc(OC)c1 [Compound 11] | 250 |  |
| CN(CCN)Cc1c[nH]nc1C1CC1 [Compound 12] | > 10000 | > 10000 |
| CN(CCN)Cc1c[nH]nc1/C=C/c1ccc(F)cc1F [Compound 13] | 300 |  |
| CN(CCN)Cc1c[nH]nc1/C=C/c1cc(C(F)(F)F)cc(C(F)(F)F)c1 [Compound 14] | 660 |  |
| CN(CCN)Cc1c[nH]nc1/C=C/c1cc(F)cc(F)c1 [Compound 15] | 700 |  |
| CN(CCN)Cc1c[nH]nc1/C=C/c1cccc(C(F)(F)F)c1 [Compound 16] | 690 |  |
| COc1cccc(/C=C/c2n[nH]cc2CN(C)CCN)c1 [Compound 17] | 410 |  |
| CN(CCN)Cc1c[nH]nc1/C=C/c1ccc(C(F)(F)F)cc1 [Compound 18] | 40 |  |
| COC/C=C/c1n[nH]cc1CN(C)CCN [Compound 19] | 2300 |  |
| CN(CCN)Cc1c[nH]nc1/C=C/c1cccc(F)c1 [Compound 20] | 470 |  |
| CC(C)c1n[nH]cc1CN(C)CCN [Compound 21] | 9560 |  |
| CN(CCN)Cc1c[nH]nc1C1CCCCC1 [Compound 22] | 300 |  |
| CN(CCN)Cc1c[nH]nc1CCc1ccc(F)cc1 [Compound 23, N^1-((3-(4-fluorophenethyl)-1H-pyrazol-4-yl)methyl)-N^1-methylethane-1,2-diamine] | 280 |  |

| SMILES | IC50 [1] [nM] | IC50 [nM] |
| --- | --- | --- |
| CN(CCN)Cc1c[nH]nc1/C=C/Cc1ccccc1 [Compound 24] | 300 |  |
| CN(CCN)Cc1c[nH]nc1C1=CCCC1 [Compound 25] | 2860 |  |
| CN(CCN)Cc1c[nH]nc1C1CCC1 [Compound 26] | 5630 |  |
| CN(CCN)Cc1c[nH]nc1C(C)(C)C [Compound 27] | > 10000 | > 10000 |
| CC(C)Cc1n[nH]cc1CN(C)CCN [Compound 28, N^1-((3-iso-butyl-1H-pyrazol-4-yl)methyl)-N^1-methylethane-1,2-diamine] | 1680 |  |
| CCCc1n[nH]cc1CN(C)CCN [Compound 29] | 3810 |  |
| Cc1n[nH]cc1CN(C)CCN [Compound 30] | > 10000 |  |
| CN(CCN)Cc1c[nH]nc1C1CCCC1 [Compound 31] | 1150 |  |
| CNCCN(C)Cc1c[nH]nc1C1CCN(C(=O)Cc2ccccc2)CC1 [Compound 32] | 770 |  |
| CN(CCN)Cc1n[nH]cc1C1CCCCC1 [Compound 33] | 500 |  |
| CNCCN(C)Cc1c[nH]nc1C1CCN(C(=O)C(C)C)CC1 [Compound 34] | 440 |  |
| CC1CCC(c2c[nH]nc2CN(C)CCN)CC1 (stereo not shown) [Compound 35] | 140 |  |
| CN(CCN)Cc1n[nH]cc1C1CCC(C)(C)CC1 [Compound 36] | 280 |  |
| CC1CCC(c2n[nH]cc2CN(C)CCN)CC1 (stereo not shown) [Compound 37, N^1-methyl-N^1-((3-(4-methylcyclohexyl)-1H-pyrazol-4-yl)methyl)ethane-1,2-diamine] | 130 |  |
| CN(CCN)Cc1c[nH]nc1C1CCC(C)(C)CC1 [Compound 38, N^1-((3-(4,4-dimethylcyclohexyl)-1H-pyrazol-4-yl)methyl)-N^1-methylethane-1,2-diamine] | 260 |  |
| CNCCN(C)Cc1c[nH]nc1C1CCN(CC(C)C)CC1 [Compound 39, N^1-((3-(1-isobutylpiperidin-4-yl)-1H-pyrazol-4-yl)methyl)-N^1,N^2-dimethylethane-1,2-diamine] | 360 |  |
| CNCCN(C)Cc1c[nH]nc1C1CCN(C(=O)CC(C)C)CC1 [Compound 40, 3-methyl-1-(4-(4-((methyl(2-(methylamino)ethyl)amino)methyl)-1H-pyrazol-3-yl)piperidin-1-yl)butan-1-one] | 7010 |  |
| CNCCN(C)Cc1c[nH]nc1C1CCN(C)CC1 [Compound 41] | 350 |  |
| CNCCN(C)Cc1c[nH]nc1C1CCNCC1 [Compound 42] | 30 |  |
| CN(CCN)Cc1n[nH]cc1C1CCC(N2CCOCC2)CC1 (stereo not shown) [Compound 44, N^1-methyl-N^1-((4-(4-morpholinocyclohexyl)-1H-pyrazol-3-yl)methyl)ethane-1,2-diamine] | 62.4 |  |
